Patent US7223865B2, “Chromogenic compounds, and use thereof as enzyme substrates” (Biomerieux, priority 2003, dated 2007)

How the values were obtained:
Experiment in all cases: pyroglutamine-aminopeptidase activity on gelled medium, Example 9
Assay type in all cases: cell-based
Parameters in all cases: key to growth: ++ means good growth; + means moderate growth; +/− means poor growth; NG means no growth
[1] = tested on: Pseudomonas aeruginosa (NCTC 10662)
Experimental: (§1) A gelled medium comprising this substrate is prepared as follows: 30 mg of each substrate are dissolved (heating) in 10 ml of sterile distilled water. Ten ml of this solution are then added to 90 ml of Columbia agar kept molten at 50° C.
(§2) Various strains of microorganisms derived from the NCTC collection (National Collection of Type Cultures, Colindale, UK) were seeded onto the media thus obtained according to the multipoint inoculation described in example 8 above.
(§3) The colonies formed were examined visually after incubation for 24 h and 48 h. The color and the growth of these colonies were noted.

[2] = tested on: Salmonella typhimurium (NCTC 74)
Experimental: as §1, §2, §3

[3] = tested on: Salmonella poona (NCTC 4840)
Experimental: as §1, §2, §3

[4] = tested on: Serratia marcescens (NCTC 10211)
Experimental: as §1, §2, §3

[5] = tested on: Klebsiella pneumonia (NCTC 10896)
Experimental: as §1, §2, §3

[6] = tested on: Enterobacter cloacae (NCTC 11936)
Experimental: as §1, §2, §3

[7] = tested on: Shigella sonnei (NCTC 9774)
Experimental: as §1, §2, §3

[8] = tested on: Escherichia coli 0157 (NCTC 12079)
Experimental: as §1, §2, §3

[9] = tested on: Escherichia coli (NCTC 14018)
Experimental: as §1, §2, §3

[10] = tested on: Burkholderia cepacia (NCTC 10743)
Experimental: as §1, §2, §3

C[n+]1c2ccccc2c(-c2ccc(NC(=O)C3CCC(=O)N3)cc2)c2ccccc21.[Cl-] (stereo not shown) [PG-4-AP-10-MA, pyroglutamyl-9-(4-aminophenyl)-10-methyl-acridine]
color of colonies ([1]; 24 h): Colorless
growth ([1]; 24 h): ++
color of colonies ([1]; 48 h): Orange
growth ([1]; 48 h): ++
color of colonies ([2]; 24 h): Colorless
growth ([2]; 24 h): ++
color of colonies ([2]; 48 h): Colorless
growth ([2]; 48 h): ++
color of colonies ([3]; 24 h): Colorless
growth ([3]; 24 h): ++
color of colonies ([3]; 48 h): Colorless
growth ([3]; 48 h): ++
color of colonies ([4]; 24 h): Colorless
growth ([4]; 24 h): ++
color of colonies ([4]; 48 h): Pale orange
growth ([4]; 48 h): ++
color of colonies ([5]; 24 h): Colorless
growth ([5]; 24 h): ++
color of colonies ([5]; 48 h): Pale orange
growth ([5]; 48 h): ++
color of colonies ([6]; 24 h): Colorless
growth ([6]; 24 h): ++
color of colonies ([6]; 48 h): Pale orange
growth ([6]; 48 h): ++
color of colonies ([7]; 24 h): Colorless
growth ([7]; 24 h): ++
color of colonies ([7]; 48 h): Colorless
growth ([7]; 48 h): ++
color of colonies ([8]; 24 h): Colorless
growth ([8]; 24 h): ++
color of colonies ([8]; 48 h): Colorless
growth ([8]; 48 h): ++
color of colonies ([9]; 24 h): Colorless
growth ([9]; 24 h): ++
color of colonies ([9]; 48 h): Colorless
growth ([9]; 48 h): ++
color of colonies ([10]; 24 h): Colorless
growth ([10]; 24 h): ++
color of colonies ([10]; 48 h): Pale orange
growth ([10]; 48 h): ++
